Patent US7553867B2, “Furan or thiophene derivative and medicinal use thereof” (Takeda Pharmaceutical Company Limited, priority 2002, dated 2009)

Tests used:
[1] = target: T1, PPARγ-RXRα heterodimer (Homo sapiens, UniProt P37231); test: PPARγ-RXRα heterodimer ligand activity (luciferase reporter, PPARγ:RXRα:4ERPP/CHO-K1 cells); format: cell-based; settings: luciferase activity at 100 nM test compound relative to non-administration group as 1
T1 construct: expressed in transfected cells
T1 sequence (P37231 1-477 isoform P37231-2): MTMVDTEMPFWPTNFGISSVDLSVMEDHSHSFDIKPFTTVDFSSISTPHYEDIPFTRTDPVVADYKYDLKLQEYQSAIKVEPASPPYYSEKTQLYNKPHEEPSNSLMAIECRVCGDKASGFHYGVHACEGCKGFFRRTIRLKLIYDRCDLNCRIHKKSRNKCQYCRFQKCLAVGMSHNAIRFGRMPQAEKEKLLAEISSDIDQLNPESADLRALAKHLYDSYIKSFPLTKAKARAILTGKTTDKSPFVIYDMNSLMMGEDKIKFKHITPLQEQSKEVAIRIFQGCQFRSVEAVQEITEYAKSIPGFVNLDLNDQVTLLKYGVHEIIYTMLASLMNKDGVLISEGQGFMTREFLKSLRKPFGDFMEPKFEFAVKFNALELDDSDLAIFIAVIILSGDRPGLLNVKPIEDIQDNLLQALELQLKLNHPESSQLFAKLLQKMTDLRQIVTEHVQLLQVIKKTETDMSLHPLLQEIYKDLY
T1 sequence (P19793 1-462 partner): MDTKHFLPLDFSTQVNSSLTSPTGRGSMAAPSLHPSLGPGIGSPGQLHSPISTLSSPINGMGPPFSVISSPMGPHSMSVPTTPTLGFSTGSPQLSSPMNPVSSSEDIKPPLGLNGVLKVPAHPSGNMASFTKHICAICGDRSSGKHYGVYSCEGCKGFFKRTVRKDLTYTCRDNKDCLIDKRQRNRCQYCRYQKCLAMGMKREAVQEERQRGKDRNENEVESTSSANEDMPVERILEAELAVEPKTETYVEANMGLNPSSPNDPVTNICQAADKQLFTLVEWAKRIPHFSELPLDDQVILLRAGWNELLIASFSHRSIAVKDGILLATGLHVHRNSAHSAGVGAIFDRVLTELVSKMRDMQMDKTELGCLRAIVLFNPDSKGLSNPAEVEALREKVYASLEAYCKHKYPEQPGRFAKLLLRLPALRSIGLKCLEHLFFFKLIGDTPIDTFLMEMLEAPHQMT
Protocol: The PPARγ:RXRα:4ERPP/CHO-K1 cells obtained in Reference Example 8a were cultured in Ham's F12 medium [produced by Life Technologies, Inc., USA] containing 10% fetal bovine serum [produced by Life Technologies, Inc., USA] and inoculated to a 96-well white plate [produced by Corning Coster Corporation, USA] at 2×10^4 cells/well and cultured overnight at 37° C. in a carbon dioxide gas incubator.
After removal of the medium from the 96-well white plate which had been cultured overnight, Ham's F12 medium containing 80 μl of 0.1% fatty acid-free bovine serum albumin (BSA) and 20 μl of a test compound were added, and the plate was incubated at 37° C. in a carbon dioxide gas incubator for 18 to 24 hours. After removal of the medium, 40 μl of PicaGene 7.5 (produced by Waco Pure Chemicals Industries, Ltd.) diluted twofold with HBSS (HANKS' BALANCED SALT SOLUTION) (produced by BIO WHITTAKER) was added, and after stirring, the luciferase activity was determined using 1420 ARVO Multilabel Counter [produced by Wallac].
A fold induction was calculated from the luciferase activity for addition of each 100 nM of the test compound relative to the luciferase activity of the test compound non-administration group as 1. Results are shown in [Table 1]. […]

[2] = target: T2, PPARδ-RXRα heterodimer (Homo sapiens, UniProt Q03181); test: PPARδ-RXRα heterodimer ligand activity (luciferase reporter, transfected COS-1 cells); format: cell-based; settings: luciferase activity at 10 nM test compound relative to non-administration group as 1
T2 construct: expressed in transfected cells; host or cells: COS-1 (transient; pMCMVneo-hPPARδ + pMCMVneo-hRXRα)
T2 sequence (Q03181 1-441): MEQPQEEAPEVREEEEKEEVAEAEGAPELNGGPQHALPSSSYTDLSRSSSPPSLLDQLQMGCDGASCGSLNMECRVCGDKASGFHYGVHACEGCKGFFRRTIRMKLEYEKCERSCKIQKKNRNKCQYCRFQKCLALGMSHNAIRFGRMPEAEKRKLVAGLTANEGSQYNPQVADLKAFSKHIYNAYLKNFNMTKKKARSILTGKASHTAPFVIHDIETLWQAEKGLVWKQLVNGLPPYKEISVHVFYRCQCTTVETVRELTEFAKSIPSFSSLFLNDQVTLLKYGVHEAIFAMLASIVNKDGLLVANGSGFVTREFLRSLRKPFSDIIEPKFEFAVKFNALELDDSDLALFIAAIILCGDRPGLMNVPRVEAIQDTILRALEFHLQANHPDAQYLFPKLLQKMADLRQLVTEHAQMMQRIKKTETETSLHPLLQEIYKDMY
T2 sequence (P19793 1-462 partner): T1 sequence (P19793 1-462 partner)
Protocol: At 18 to 24 hours after transfection carried out in Reference Example 9a, COS-1 cells were collected, suspended in DMEM medium [manufactured by Life Technologies, Inc., USA] containing 0.1% fatty acid-free bovine serum albumin (BSA) (produced by Waco Pure Chemicals Industries, Ltd.), and inoculated to each well of a 96-well white plate (produced by Corning, USA) at 1×10^4 cells/well in 80 μl. Subsequently, 20 μl of a test compound was added, and the plate was incubated under the conditions of 37° C. and 5% CO2 for 36 to 48 hours. After removal of the medium from the 96-well white plate, 40 μl of PicaGene. LT 7.5 (produced by Waco Pure Chemicals Industries, Ltd.) diluted twofold with HBSS (HANKS' BALANCED SALT SOLUTION) (produced by BIO WHITTAKER) was added, and after stirring, the luciferase activity was determined using 1420 ARVO Multilabel Counter [produced by Wallac].
The fold induction was calculated from the luciferase activity for addition of each 10 nM of the test compound relative to the luciferase activity of the test compound non-administration group as 1. Results are shown in [Table 2].
A COS-1 cell was inoculated in a cell culture flask (produced by Corning, USA) of 150 cm^2 at 5×10^6 cells/50 ml, and the plate was incubated under the conditions of 37° C. and 5% CO2 for 24 hours. Transfection was carried out with lipofectamine (produced by Invitrogen, USA). A transfection mixture solution was prepared by mixing 125 μl of lipofectamine, 100 μl of PLUS Reagent, 2.5 μg of pMCMVneo-hPPARδ (obtained in Reference Example 3a), 2.5 μg of pMCMVneo-hRXRα (obtained in Reference Example 4a), 5 μg of reporter plasmid pGL3-4ERPP-TK neo (obtained in Reference Example 5a) and 5 μg of pRL-tk [produced by Promega, USA] with 5 ml of opti-MEM (produced by Invitrogen, USA). To the COS-1 cell washed with opti-MEM, the above-mentioned transfection mixture solution and 20 ml of opti-MEM were added, and then incubated under the conditions of 37° C. and 5% CO2 for 3 hours. Then, 25 ml of DMEM medium [manufactured by Life Technologies, Inc., USA] containing 0.1% fatty acid-free bovine serum albumin (BSA) (produced by Waco Pure Chemicals Industries, Ltd.) was added thereto, and then incubated under the conditions of 37° C. and 5% CO2 for 18 to 24 hours.

[3] = target: T3, human GPR40 (Homo sapiens, UniProt O14842); test: Receptor function regulating action (agonist action) for GPR40, intracellular calcium by FLIPR in CHO cells; format: cell-based; settings: CHO cells expressing human GPR40; change of fluorescence intensity at 30 seconds after reaction initiation
T3 construct: expressed in transfected cells; host or cells: CHO cell strain (No. 104)
Protocol: CHO cell strain (No. 104) which have had expressed human GPR40 was diluted to contain 3×10^4 cells/100 μL, and added to a Black walled 96-well plate (Costar) at 100 μL/well, and incubated overnight in CO2 incubator. Change of intracellular calcium concentration was measured with FLIPR (Molecular Device). The method is as follows. 50 μg of Fluo-3AM (DOJIN) was dissolved in 21 μL of DMSO (DOJIN), and the same amount of 20% pluronic acid (Molecular Probes) was further added thereto, and the mixture was mixed. The mixture was added to 10.6 mL of an assay buffer [prepared by adding 10 mL of solution which was produced by adding 20 mL of 1 M HEPES (pH 7.4) (DOJIN) to 1 L of HBSS (Invitrogen), dissolving 710 mg of probenecid (Sigma) in 5 mL of 1N NaOH, and further adding 5 mL of the above-mentioned HBSS/HEPES solution thereto and mixing it.] containing 105 μL of fetal bovine serum, to give a fluorescent dye solution. The medium of the cell plate was removed, and immediately, the fluorescent dye solution was added at 100 μL/well, and incubated in CO2 incubator for 1 hour, allowing the fluorescent dye to be incorporated into the cells. The cells after incubation were washed with the above-mentioned assay buffer. The compound to be added to the cells was diluted with the assay buffer to each concentration, added to the plate for the test sample. After conducting the above-mentioned pretreatment, intracellular calcium concentration change after adding the compound was measured in FLIPR to investigate the agonist action. By dose-response curve with the change of fluorescence intensity value at 30 seconds after reaction initiation, EC50 value was calculated.

T3 sequence (O14842 whole entry): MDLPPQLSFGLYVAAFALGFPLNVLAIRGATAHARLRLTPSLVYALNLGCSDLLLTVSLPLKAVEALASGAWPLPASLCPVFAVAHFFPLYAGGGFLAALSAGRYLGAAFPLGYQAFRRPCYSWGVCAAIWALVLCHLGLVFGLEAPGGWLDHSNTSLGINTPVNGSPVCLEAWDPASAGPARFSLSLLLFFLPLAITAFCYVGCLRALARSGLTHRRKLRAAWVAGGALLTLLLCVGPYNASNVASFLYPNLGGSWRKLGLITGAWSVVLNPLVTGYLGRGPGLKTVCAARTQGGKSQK

Row | melting point | fold induction at 0.1 µM [1] | fold induction at 0.01 µM [2] | EC50 [3] | Compound
1 | 94 to 96 °C | 2.8 |  |  | CCCCCCCN(C(=O)c1cc(-c2ccc(F)cc2)oc1C)c1cccc(CSCC(=O)O)c1 [Example 1(3), [(3{[5-(4-Fluorophenyl)-2-methyl-3-furoyl](heptyl)amino}benzyl)thio]acetic acid]
2 | 95 to 97 °C |  | 6.7 |  | CCc1oc(-c2ccc(C(F)(F)F)cc2)cc1COc1ccc(CCC(=O)O)c(C)c1 [Example 5(9), 3-[4-({2-Ethyl-5-[4-(trifluoromethyl)phenyl]-3-furyl}methoxy)-2-methylphenyl]propionic acid]
3 | 159 to 160 °C |  | 6.6 | 160 nM | COc1cc(OCc2cc(-c3ccc(C(F)(F)F)cc3)oc2C)ccc1CCC(=O)O [Example 6(6), 3-[2-Methoxy-4-({2-methyl-5-[4-(trifluoromethyl)phenyl]-3-furyl}methoxy)phenyl]propionic acid]
4 | 113 to 114 °C |  | 5.6 |  | CCc1oc(-c2ccc(C(F)(F)F)cc2)cc1CCCOc1cccc(CC(=O)O)c1 [Example 6(26), [3-(3-{2-Ethyl-5-[4-(trifluoromethyl)phenyl]-3-furyl}propoxy)phenyl]acetic acid]

The next lines start with the compound.

Row | Compound | melting point | fold induction at 0.1 µM [1] | fold induction at 0.01 µM [2] | EC50 [3]
5 | Cc1oc(C2CCCCC2)c(COc2cccc(CSCC(=O)O)c2)c1-c1ccc(F)cc1 [Example 5(2), [(3-{[2-Dichlorohexyl-4-(4-fluorophenyl)-5-methyl-3-furyl]methoxy}benzyl)thio]acetic acid] |  | 2.3 |  | 
6 | Cc1cc(OCc2cc(-c3ccc(C(F)(F)F)cc3)oc2C)ccc1CCC(=O)O [Example 6(4), 3-[2-Methyl-4-({2-methyl-5-[4-(trifluoromethyl)phenyl]-3-furyl}methoxy)phenyl]propionic acid] | 140 to 141 °C |  | 7.4 | 180 nM
7 | Cc1cc(OCCCc2cc(-c3ccc(C(F)(F)F)cc3)oc2C)ccc1CCC(=O)O [Example 6(24), 3-[2-Methyl-4-(3-{2-methyl-5-[4-(trifluoromethyl)phenyl]-3-furyl}propoxy)phenyl]propionic acid] | 125 to 126 °C |  | 6.8 | 
